Experimental data published in US20250066864A1, “METHODS FOR IDENTIFYING ADAR1 INHIBITORS, AND COMPOSITIONS AND METHODS OF USE IN TREATING CANCER” (The Wistar Institute of Anatomy and Biology, priority 2021, published 2025).

Assays:
HeLa-Nluc-edit cells = test: Firefly luciferase (FFL) activity in HeLa-Nluc-edit reporter cells (viability/apoptosis); format: cell-based, human; conditions: FIG. 24C
Method: A HeLa cell line (telomerase positive) permanently transformed with a dual luciferase reporter system (HeLa-Nluc-edit) as described by Fritzell, K. et al (Sensitive ADAR editing reporter in cancer cells enables high-throughput screening of small molecule libraries. Nucleic acids research 47, e22, doi:10.1093/nar/gky1228 (2019), which is incorporated herein by reference) were seeded at a density of 800 cells per well into 384 white plates (PerkinElmer, CulturPlate384, #6007689) in 20 μl of Opti-MEM without phenol red (Thermo Fisher Scientific #11058021) using a multidrop dispenser (Thermo Fisher Scientific) and incubated overnight at 37-C, 5% CO2. The cells were then treated with test compounds (Maybridge HitFinder Diversity Set library) for 72 h prior to luminescence signal detection. Briefly, 10 μl of Steadylite Plus FFL assay system reagents were added and firefly luminescence signal was measured within 10-20 min after the addition using a multiplate reader at 1 s integration time. Firefly luciferase activity was calculated for each well and results for each plate were normalized to a negative (0.1% DMSO) and positive (Doxorubicin 10 microM) control. […]
For the second screen, 10 μl of Steadylite Plus FFL assay system reagents were added and firefly luminescence signal was measured within 10-20 min after the addition using a multiplate reader at 1 s integration time. […]

ADAR = biological target: T1, ADAR (Homo sapiens, UniProt P55265); conditions: cited from earlier work
T1 sequence (P55265 1-1226): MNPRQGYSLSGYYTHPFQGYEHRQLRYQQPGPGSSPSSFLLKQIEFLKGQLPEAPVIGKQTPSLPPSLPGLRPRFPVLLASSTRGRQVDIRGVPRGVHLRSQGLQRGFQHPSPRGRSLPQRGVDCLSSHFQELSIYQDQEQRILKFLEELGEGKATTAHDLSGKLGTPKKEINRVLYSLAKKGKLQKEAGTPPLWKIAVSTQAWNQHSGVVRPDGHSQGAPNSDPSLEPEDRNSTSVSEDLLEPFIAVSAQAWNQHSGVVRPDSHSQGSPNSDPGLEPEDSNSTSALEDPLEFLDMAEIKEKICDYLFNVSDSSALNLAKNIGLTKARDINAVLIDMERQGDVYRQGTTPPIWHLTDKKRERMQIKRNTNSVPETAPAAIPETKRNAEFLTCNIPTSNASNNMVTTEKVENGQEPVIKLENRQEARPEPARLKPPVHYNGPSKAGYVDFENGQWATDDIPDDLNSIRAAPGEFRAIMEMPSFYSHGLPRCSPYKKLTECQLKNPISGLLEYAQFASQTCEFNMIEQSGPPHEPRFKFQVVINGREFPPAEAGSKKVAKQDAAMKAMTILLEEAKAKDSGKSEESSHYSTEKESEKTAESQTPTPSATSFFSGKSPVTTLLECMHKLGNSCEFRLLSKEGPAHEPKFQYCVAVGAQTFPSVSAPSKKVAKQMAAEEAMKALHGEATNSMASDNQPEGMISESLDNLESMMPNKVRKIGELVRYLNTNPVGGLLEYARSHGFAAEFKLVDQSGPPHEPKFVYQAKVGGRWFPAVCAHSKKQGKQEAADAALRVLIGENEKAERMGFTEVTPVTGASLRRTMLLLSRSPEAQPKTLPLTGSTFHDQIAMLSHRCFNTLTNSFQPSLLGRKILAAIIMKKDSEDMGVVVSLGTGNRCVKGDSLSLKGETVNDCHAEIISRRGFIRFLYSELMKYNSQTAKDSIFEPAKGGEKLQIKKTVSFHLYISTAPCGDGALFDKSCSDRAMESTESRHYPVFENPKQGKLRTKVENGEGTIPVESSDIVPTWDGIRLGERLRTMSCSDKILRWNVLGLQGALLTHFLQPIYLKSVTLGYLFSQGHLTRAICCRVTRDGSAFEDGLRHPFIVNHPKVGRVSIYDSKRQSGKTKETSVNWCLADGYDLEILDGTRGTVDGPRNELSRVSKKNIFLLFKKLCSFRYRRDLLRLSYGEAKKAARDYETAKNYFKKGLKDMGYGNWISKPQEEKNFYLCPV

Q: For `COc1cccc2c1C(=O)c1c(O)c3c(c(O)c1C2=O)C[C@@](O)(C(=O)CO)C[C@@H]3O[C@H]1C[C@H](N)[C@H](O)[C@H](C)O1` [Doxorubicin], which “apoptosis detected by reduction of the FFL activity” value (HeLa-Nluc-edit cells) is on record?
A: The value was “induces acute apoptosis”.

Q: For `Nc1ncnc2c1nc(Cl)n2[C@@H]1O[C@H](CO)[C@@H](O)[C@H]1O` [8-chloroadenosine], which ADAR inhibition (ADAR) is on record?
A: Its ADAR inhibition is “not ADAR inhibitors”.

Q: With `Nc1ncnc2c1nnn2[C@@H]1O[C@H](CO)[C@@H](O)[C@H]1O` [8-azaadenosine] as the compound, how does the ADAR inhibition (ADAR) read?
A: Its ADAR inhibition is “not ADAR inhibitors”.
